Results: patent US20100209406A1, “BACILLUS STRAINS AND METHODS FOR REDUCING E. COLI DISEASE AND ENHANCING PERFORMANCE” (priority 2004, published 2010)
Residues, ends and D or L forms follow the SMILES beside them.

What was measured:
Assay in all cases: Antibiotic sensitivity assay (antibiotic discs)
Format in all cases: cell-based, Bacillus subtilis
Bacillus strain 15A-P4 = conditions: antibiotic disc on TSA with 1.0% 15A-P4, 32° C. overnight
Description: (§1) After the plates were solidified, the antibiotic discs were placed onto the agar surface. The plates were incubated at 32° C. overnight. Inhibitory zones were measured in millimeters.

Bacillus strain 22C-P1 = conditions: antibiotic disc on TSA with 1.0% 22C-P1, 32° C. overnight
Description: as §1

Bacillus strain 3A-P4 = conditions: antibiotic disc on TSA with 1.0% 3A-P4, 32° C. overnight
Description: as §1

| Compound | Inhibitory Zones (Bacillus strain 15A-P4) | Inhibitory Zones (Bacillus strain 22C-P1) | Inhibitory Zones (Bacillus strain 3A-P4) |
| --- | --- | --- | --- |
| CC[C@H](C)[C@H](N)C1=N[C@H](C(=O)N[C@@H](CC(C)C)C(=O)N[C@H](CCC(=O)O)C(=O)N[C@H](C(=O)N[C@H]2CCCCNC(=O)[C@H](CC(N)=O)NC(=O)[C@@H](CC(=O)O)NC(=O)[C@H](Cc3cnc[nH]3)NC(=O)[C@@H](Cc3ccccc3)NC(=O)[C@H]([C@@H](C)CC)NC(=O)[C@@H](CCCN)NC2=O)[C@@H](C)CC)CS1 [Bacitracin] (HELM PEPTIDE1{[CC[C@H](C)[C@H](N)C1=N[C@H](C(=O)[*:2])CS1].L.[dE].I.K.[NCCC[C@@H](N[*:1])C(=O)[*:2]].I.[dF].H.[dD].N}$PEPTIDE1,PEPTIDE1,5:R3-11:R2$$$V2.0) | 8 Millimeters | 8 Millimeters | 8 Millimeters |
| CCC[C@@H]1C[C@@H](C(=O)N[C@@H]([C@H]2O[C@H](SC)[C@H](O)[C@@H](O)[C@H]2O)[C@@H](C)O)N(C)C1 [Lincomycin] | 9 Millimeters | 8 Millimeters | 8 Millimeters |
| CN(C)[C@@H]1C(=O)C(C(N)=O)=C(O)[C@@]2(O)C(=O)C3=C(O)c4c(O)cccc4[C@@](C)(O)[C@H]3[C@H](O)[C@@H]12 [Oxytetracycxyline] | 14 Millimeters | 24 Millimeters | 24 Millimeters |
| CN(C)[C@@H]1C(O)=C(C(N)=O)C(=O)[C@@]2(O)C(O)=C3C(=O)c4c(O)cccc4[C@@](C)(O)[C@H]3C[C@@H]12 [Tetracycline] | 14 Millimeters | 21 Millimeters | 26 Millimeters |
| Gentamycin | 22 Millimeters | 22 Millimeters | 26 Millimeters |
| Neomycin | 12 Millimeters | 12 Millimeters | 16 Millimeters |
| Penicillin | 11 Millimeters | 13 Millimeters | 0 Millimeters |
